Measured values published in article PMC8871626, “UPLC-PDA-ESI-QTOF-MS/MS fingerprint of purified flavonoid enriched fraction of Bryophyllum pinnatum; antioxidant properties, anticholinesterase activity and in silico studies” (Pharmaceutical Biology, 2021).

Legend:
Assay type in all cases: biochemical
[1] = tested on: Fe2+-induced lipid peroxidation in rat brain homogenate; assay: Fe2+-induced lipid peroxidation (TBARS) assay in brain homogenate; conditions: for Lipid peroxidation IC50: FeSO4, 37 °C 30 min, TBARS 532 nm; for IC50: IC50 values in µM presented for comparison, read-out: LP (IC50 in µM)
Protocol: Thiobarbituric acid reactive species (TBARS) assay was used to measure the lipid peroxide formed using brain tissue homogenates as lipid-rich media, as described by Ruberto et al. ([2000]) with slight modifications. […] Thereafter, 0.05 mL of FeSO4 was added and the mixture was incubated at 37 °C for 30 min. Then, 1.5 mL of acetic acid was added, followed by 1.5 mL of TBA in SDS. The resulting mixture was mixed and heated at 95 °C for 60 min. After cooling, 5 mL of butanol was added and the mixture was centrifuged at 3000 rpm for 10 min. The absorbance of the organic upper layer was measured at 532 nm and the percentage inhibition was calculated with the formula: (2) %inhibition=[A control – A sample/Acontrol]×100

rat serum BuChE = biological target: T1, rat serum BuChE (Rattus norvegicus, UniProt Q9JKC1); assay: BuChE inhibition, Ellman's colorimetric method; conditions: BuChE IC50, rat blood enzyme, butyrylthiocholine iodide
T1 construct: from tissue; host or cells: rat blood (serum)
T1 sequence (Q9JKC1 24-597): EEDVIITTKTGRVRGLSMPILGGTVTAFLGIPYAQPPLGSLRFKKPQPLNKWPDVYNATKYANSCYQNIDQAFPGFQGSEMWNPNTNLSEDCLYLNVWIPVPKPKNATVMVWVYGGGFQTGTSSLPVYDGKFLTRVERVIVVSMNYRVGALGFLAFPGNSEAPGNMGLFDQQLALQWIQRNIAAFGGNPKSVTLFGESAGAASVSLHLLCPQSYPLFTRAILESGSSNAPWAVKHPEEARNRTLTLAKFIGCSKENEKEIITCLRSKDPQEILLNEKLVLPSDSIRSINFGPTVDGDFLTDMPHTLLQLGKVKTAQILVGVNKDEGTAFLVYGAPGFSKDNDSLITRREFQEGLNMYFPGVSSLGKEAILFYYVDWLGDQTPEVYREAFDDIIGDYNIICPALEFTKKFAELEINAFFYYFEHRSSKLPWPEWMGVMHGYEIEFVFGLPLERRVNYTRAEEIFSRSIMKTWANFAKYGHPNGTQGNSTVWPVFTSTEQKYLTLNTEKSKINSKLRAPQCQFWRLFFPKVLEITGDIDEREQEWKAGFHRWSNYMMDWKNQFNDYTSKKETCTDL
Protocol: Whole-brain tissue from adult male Wistar rat was used as a source of AChE enzyme and a lipid-rich media for lipid peroxidation assay while rat blood tissue was used as a source of BuChE enzyme.
For the enzyme source, the rat brains were homogenized in a homogenizer with 10 volumes of a homogenization buffer (10 mM Tris-HCl, pH 7.2) containing 1 M NaCl, 50 mM MgCl2 and1% Triton X-100 and centrifuged at 10,000 rpm for 30 min. The resulting supernatants were collected, and the solution of these supernatants was used as an enzyme source. The temperature was maintained at 4 °C throughout the excretion procedure. The rate of AChE hydrolysis was monitored spectrophotometrically. […] Absorbance at 405 nm was recorded immediately after adding Ellman’s reaction mixture (3.5 mL; 0.5 mM acetylthiocholine, 1 mM DTNB) in a 50 mM sodium phosphate buffer (pH 8.0) to the reaction mixture. Readings were repeated for 30 min to verify the reaction. […] The percentage of AChE inhibition was calculated using the following formula: (3) %Cholinesterase inhibition=[A control – A sample/Acontrol]×100
Assessment of BuChE inhibition was performed as described in Equation (3) except that the enzyme solution was (100 μL) acetylthiocholine iodide was replaced with butyrylthiocholine iodide. All other reagents and conditions remained the same.

[2] = DPPH radical scavenging assay; conditions: for DPPH radical IC50: 3.125–100 µg/mL, 30 min in the dark, absorbance 518 nm, triplicate; for IC50: IC50 values in µM presented for comparison
Protocol: Based on the principle, when DPPH reacts with an antioxidant compound that can donate hydrogen, it is reduced. The change in colour from deep violet to golden/light yellow can be measured at 518 nm. Briefly, 1 mL of 0.3 mM of DPPH solution was added to 1 mL of each of the test solutions. […] The mixtures were vortexed thoroughly and allowed to stand at room temperature in the dark for 30 min, […]. The absorbance values were recorded at 518 nm, and converted into percentage antioxidant activity, using the formula below: Results were expressed as a percentage of inhibitions (100%). […] Each test was carried out in triplicates.
The % DPPH scavenging effect of the antioxidant was calculated as follows: (1) %DPPH scavenging effect=[A control – A sample/Acontrol]× 100

| Compound | Lipid peroxidation IC50 [1] [µg/mL] | IC50 [1] [µM] | IC50 (rat serum BuChE) [µM] | DPPH radical IC50 [2] [µg/mL] | IC50 [2] [µM] |
| --- | --- | --- | --- | --- | --- |
| O=c1c(O)c(-c2ccc(O)c(O)c2)oc2cc(O)cc(O)c12 [Quercetin] | 25.242 ± 1.97 | 83.51 ± 0.654 | 80.5 | 13.803 ± 0.34 | 45.7 ± 1.13 |
| O=C1O[C@H]([C@@H](O)CO)C(O)=C1O [Ascorbic acid, ascorbic acid] | 14.393 ± 0.54 | 81.72 ± 0.309 |  | 10.186 ± 0.14 | 57.8 ± 0.827 |
